Reference: patent US7135466B2 (Kirin Beer Kabushiki Kaisha, priority 1999, dated 2006)
Where two headings read alike, the source gives them in different places.

Assays:
[1] = target: T1, c-kit (Homo sapiens, UniProt P10721); assay: Inhibitory activity against c-kit autophosphorylation (MO7e cells, h-SCF); assay type: cell-based; conditions: for IC50: MO7e cells, read-out: c-kit IC50; for inhibition at 1 µM: Mo7e, at 1000 nM
T1 construct: MO7e (human megakaryocytic leukemia cell line) which had been arrested for 20 hr; endogenous in cells; host or cells: MO7e human megakaryocytic leukemia cell line
Outline: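 First, human megakaryocytic leukemia MO7e cells arrested 20 hr receive compound for one hour. Second, SCF stimulation (50 ng/ml) runs 5 min, after which cells are solubilized. Third, tyrosine-phosphorylated c-kit in the lysate is quantified by sandwich ELISA with absorbance at 450 nm.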

[2] = target: T2, PDGF-Ra (Homo sapiens, UniProt P16234); assay: Inhibitory activity against PDGF-Ra phosphorylation by PDGF-AA stimulation using G292; assay type: cell-based; conditions: for IC50: > means inhibition at indicated concentration not more than 50%, < and << not less than 50%, read-out: PDGF (E) IC50
T2 construct: host or cells: G-292 human osteosarcoma cells
Outline: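 G-292 human osteosarcoma cells, serum-starved overnight in 0.1% FBS, were pretreated with compound in DMSO for 1 hr at 37 °C, then stimulated with 50 ng/ml PDGF-AA for 5 min. Lysates were captured on anti-phosphotyrosine PY-20 plates and probed with anti-PDGF-Ra plus HRP secondary; absorbance read at 450 nm.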

[3] = figure within parentheses in −( ) or >1000( )

T1 sequence (P10721 26-976): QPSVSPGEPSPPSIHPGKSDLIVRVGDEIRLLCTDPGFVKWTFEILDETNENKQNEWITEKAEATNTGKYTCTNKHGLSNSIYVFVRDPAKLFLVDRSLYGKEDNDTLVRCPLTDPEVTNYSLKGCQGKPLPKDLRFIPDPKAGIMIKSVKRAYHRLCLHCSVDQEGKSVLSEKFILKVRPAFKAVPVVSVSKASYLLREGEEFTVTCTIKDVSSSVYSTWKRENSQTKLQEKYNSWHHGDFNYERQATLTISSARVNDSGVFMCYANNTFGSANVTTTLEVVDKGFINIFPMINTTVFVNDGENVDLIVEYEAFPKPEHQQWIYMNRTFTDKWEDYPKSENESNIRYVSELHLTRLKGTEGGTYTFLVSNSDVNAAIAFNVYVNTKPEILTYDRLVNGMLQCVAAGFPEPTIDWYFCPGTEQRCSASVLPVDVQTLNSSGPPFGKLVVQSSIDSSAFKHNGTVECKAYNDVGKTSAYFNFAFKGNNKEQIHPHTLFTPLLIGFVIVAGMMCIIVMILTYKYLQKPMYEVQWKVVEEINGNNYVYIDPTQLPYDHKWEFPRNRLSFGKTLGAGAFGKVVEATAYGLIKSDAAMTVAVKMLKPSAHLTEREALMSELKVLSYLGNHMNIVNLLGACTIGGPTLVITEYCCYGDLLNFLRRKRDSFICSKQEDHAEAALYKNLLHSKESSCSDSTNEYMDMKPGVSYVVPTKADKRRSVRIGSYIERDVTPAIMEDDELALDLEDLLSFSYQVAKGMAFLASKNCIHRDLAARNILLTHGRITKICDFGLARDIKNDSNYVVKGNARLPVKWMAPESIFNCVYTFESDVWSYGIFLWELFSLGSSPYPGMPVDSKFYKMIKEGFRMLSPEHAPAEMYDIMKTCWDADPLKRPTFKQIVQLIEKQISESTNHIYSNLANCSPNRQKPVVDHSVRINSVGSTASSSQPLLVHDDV
T2 sequence (P16234 24-1089): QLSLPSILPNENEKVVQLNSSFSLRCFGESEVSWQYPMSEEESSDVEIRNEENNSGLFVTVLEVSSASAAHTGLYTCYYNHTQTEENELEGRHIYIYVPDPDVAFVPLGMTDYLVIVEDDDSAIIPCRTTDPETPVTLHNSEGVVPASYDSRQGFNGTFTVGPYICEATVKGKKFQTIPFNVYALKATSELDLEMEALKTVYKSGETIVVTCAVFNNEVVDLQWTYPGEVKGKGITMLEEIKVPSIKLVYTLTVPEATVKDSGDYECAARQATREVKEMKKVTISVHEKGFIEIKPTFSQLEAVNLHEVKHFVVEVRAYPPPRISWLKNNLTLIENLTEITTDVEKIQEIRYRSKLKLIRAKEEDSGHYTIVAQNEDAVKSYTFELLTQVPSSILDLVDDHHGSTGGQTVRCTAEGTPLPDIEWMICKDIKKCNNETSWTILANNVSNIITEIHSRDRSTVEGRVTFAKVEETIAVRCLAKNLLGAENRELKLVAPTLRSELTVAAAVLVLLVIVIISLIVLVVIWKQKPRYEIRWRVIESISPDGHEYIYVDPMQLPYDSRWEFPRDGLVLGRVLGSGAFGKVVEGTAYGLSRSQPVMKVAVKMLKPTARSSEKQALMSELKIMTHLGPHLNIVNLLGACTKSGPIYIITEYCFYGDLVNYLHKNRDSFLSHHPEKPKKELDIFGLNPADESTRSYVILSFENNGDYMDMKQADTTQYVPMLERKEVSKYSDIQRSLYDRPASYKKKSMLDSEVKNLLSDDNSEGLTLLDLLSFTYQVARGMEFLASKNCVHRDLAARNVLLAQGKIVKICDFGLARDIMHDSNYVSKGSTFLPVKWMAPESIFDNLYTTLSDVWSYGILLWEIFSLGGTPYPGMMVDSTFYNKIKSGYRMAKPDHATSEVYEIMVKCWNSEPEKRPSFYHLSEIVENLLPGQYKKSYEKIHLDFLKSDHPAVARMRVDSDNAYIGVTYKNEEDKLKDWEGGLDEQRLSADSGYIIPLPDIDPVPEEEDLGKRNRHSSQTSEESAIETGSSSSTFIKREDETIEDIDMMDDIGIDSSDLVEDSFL

| IC50 [2] [nM] | IC50 ([1]; h-SCF 50 ng/ml) [nM] | IC50 ([2]; Pharmacological Test Example 1) [nM] | Structure (SMILES) | further results |
| --- | --- | --- | --- | --- |
| 54 | – | – | CCN(CC)CCCOC(=O)Nc1ccc(Oc2ncnc3cc(OC)c(OC)cc23)cc1 [Example 429, 3-(Diethylamino)propyl N-{4-[(6,7-dimethoxy-4-quinazolinyl)oxy]phenyl}carbamate] | IC50 ([1]; 50 ng/ml h-SCF): 603 nM |
| 24 | – | – | COc1cc2ncnc(Oc3ccc(N(C)C(=O)OC4CCCCCC4)c(Cl)c3)c2cc1OC [Example 482, Cycloheptyl N-{2-chloro-4-[(6,7-dimethoxy-4-quinazolinyl)oxy]phenyl}-N-methylcarbamate] | inhibition at 1 µM [1, 3]: 5% |
| < 10 | – | – | COc1cc2nccc(Oc3ccc(NC(=S)NC(=O)COc4ccccc4C)cc3)c2cc1OC [Example 739, N-{4-[(6,7-Dimethoxy-4-quinolyl)oxy]phenyl}-N′-[2-(2-methylphenoxy)acetyl]thiourea] | IC50 ([1]; 50 ng/ml h-SCF): 234 nM |
| 36 | – | – | COc1cc(Oc2ncnc3cc(OC)c(OC)cc23)ccc1NC(=O)NCCN1CCCC1 [Example 632, N-{4-[(6,7-Dimethoxy-4-quinazolinyl)oxy]-2-methoxyphenyl}-N′-(2-tetrahydro-1H-1-pyrrolylethyl)urea] | IC50 ([1]; 50 ng/ml h-SCF): 223 nM |
| 65 | – | – | COc1cc2ncnc(Oc3ccc(NC(=S)NCCN4CCOCC4)cc3)c2cc1OC [Example 527, N-{4-[(6,7-Dimethoxy-4-quinazolinyl)oxy]phenyl}-N′-[2-(1-morpholinyl)ethyl]thiourea] | IC50 ([1]; 50 ng/ml h-SCF): 875 nM |
| 52 | – | – | COc1cc2nccc(Oc3ccc(NCCCOc4ccccc4Cl)c(C)c3C)c2cc1OC [Example 893] | IC50 ([1]; h-SCF stimulation): 640 nM |
| 26 | – | – | C=C(C)COC(=O)Nc1ccc(Oc2ncnc3cc(OC)c(OC)cc23)cc1 [Example 407, 2-Methylallyl N-{4-[(6,7-dimethoxy-4-quinazolinyl)oxy]phenyl}carbamate] | IC50 ([1]; 50 ng/ml h-SCF): 68 nM |
| < 10 | – | – | COc1cc2nccc(Oc3ccc(NC(=S)NC(=O)CCc4ccccc4)cc3F)c2cc1OC [Example 1028, N-{4-[(6,7-Dimethoxy-4-quinolyl)oxy]-3-fluorophenyl}-N′-(3-phenylpropanoyl)thiourea] | IC50 ([1]; h-SCF stimulation): 545 nM |
| – | 28 | < 10 | COc1cc2nccc(Oc3ccc(NC(=O)OCC4CC4)c(C)c3C)c2cc1OC [Example 382, Cyclopropylmethyl N-{4-[(6,7-dimethoxy-4-quinolyl)oxy]-2,3-dimethylphenyl}carbamate] | – |
| – | 259 | < 10 | CCCC(CCC)OC(=O)Nc1ccc(Oc2ccnc3cc(OC)c(OC)cc23)cc1 [Example 332, 1-Propylbutyl N-{4-[(6,7-dimethoxy-4-quinolyl)oxy]phenyl}carbamate] | – |
| – | < 30 | < 10 | CCCCOC(=O)Nc1ccc(Oc2ncnc3cc(OC)c(OC)cc23)cc1 [Example 344, Butyl N-{4-[(6,7-dimethoxy-4-quinazolinyl)oxy]phenyl}carbamate] | – |
| 95 | – | – | COc1cc2nccc(Oc3ccc(NCCCOc4ccccc4C)c(C)c3C)c2cc1OC [Example 890, N-{4-[(6,7-Dimethoxy-4-quinolyl)oxy]-2,3-dimethylphenyl}-N-[3-(2-methylphenoxy)propyl]amine] | inhibition at 1 µM ([1]; figure in parentheses in −( )): 39% |
| > 100 | – | – | COc1cc2nccc(Oc3ccc(NC(=O)NC4CCN(Cc5ccccc5C)CC4)cc3)c2cc1OC [Example 568, N-{4-[(6,7-Dimethoxy-4-quinolyl)oxy]phenyl}-N′-[1-(2-methylbenzyl)-4-piperidyl]urea] | inhibition at 1 µM [1, 3]: 31%; inhibition at 0.1 µM ([2]; G292, figure within parentheses in >100( ), at 100 nM, read-out: PDGF (E) inhibition (%) at 100 nM): 28% |
| < 10 | – | – | C=C(C)COC(=O)Nc1ccc(Oc2ccnc3cc(OC)c(OC)cc23)cc1 [Example 404, 2-Methylallyl N-{4-[(6,7-dimethoxy-4-quinolyl)oxy]phenyl}carbamate] | IC50 ([1]; 50 ng/ml h-SCF): 81 nM |
| 27 | – | – | COc1cc2nccc(Oc3ccc(NC(=S)NC(=O)N(C(C)C)C(C)C)cc3)c2cc1OC [Example 1043, N-{4-[(6,7-Dimethoxy-4-quinolyl)oxy]phenyl}-{[(diisopropylamino)carbonyl]amino}methanethioamide] | IC50 ([1]; h-SCF stimulation): 449 nM |
| 9 | – | – | CCc1ccc(C(=O)NC(=S)Nc2ccc(Oc3ccnc4cc(OC)c(OC)cc34)c(F)c2)cc1 [Example 997, N-{4-[(6,7-Dimethoxy-4-quinolyl)oxy]-3-fluorophenyl}-N′-(4-ethylbenzoyl)thiourea] | IC50 ([1]; h-SCF stimulation): 264 nM |
| 21 | – | – | COc1cc2ncnc(Oc3ccc(NC(=S)NC(=O)C4(c5ccccc5)CC4)cc3)c2cc1OC [Example 1195, N-{4-[(6,7-Dimethoxy-4-quinazolinyl)oxy]phenyl}-N′-[(1-phenylcyclopropyl)carbonyl]thiourea] | IC50 ([1]; h-SCF stimulation): 530 nM |
| < 3 | – | – | COc1cc2nccc(Oc3ccc(NCCCOc4ccccc4)cc3)c2cc1OC [Example 885, N-{4-[(6,7-Dimethoxy-4-quinolyl)oxy]phenyl}-N-(3-phenoxypropyl)amine] | IC50 ([1]; h-SCF stimulation): 420 nM |
| 16 | – | – | COc1cc2nccc(Oc3ccc(NC(=S)NC(=O)COc4ccccc4Cl)cc3Cl)c2cc1OC [Example 714, N-{3-Chloro-4-[(6,7-dimethoxy-4-quinolyl)oxy]phenyl}-N′-[2-(2-chlorophenoxy)acetyl]thiourea] | IC50 ([1]; 50 ng/ml h-SCF): 248 nM |

Further lines, the molecule ahead of its results:

| Structure (SMILES) | IC50 [2] [nM] | IC50 ([1]; h-SCF 50 ng/ml) [nM] | IC50 ([2]; Pharmacological Test Example 1) [nM] | further results |
| --- | --- | --- | --- | --- |
| COc1cc2ncnc(Oc3ccc(NC(=O)OCCCOc4ccccc4Cl)cc3)c2cc1OC [Example 19, 3-(2-Chlorophenoxy)propyl N-{4-[(6,7-dimethoxy-4-quinazolinyl)oxy]phenyl}carbamate] | – | 41 | < 10 | – |
| COc1cc2ncnc(Oc3ccc(NC(=O)OC(C)c4cccc(C(F)(F)F)c4)cc3)c2cc1OC (stereo not shown) [Example 90, 1-[3-(Trifluoromethyl)phenyl]ethyl N-{4-[(6,7-dimethoxy-4-quinazolinyl)oxy]phenyl}carbamate] | – | 621 | < 10 | – |
| COc1cc2nccc(Oc3ccc(NC(=O)OC(C)c4cccc(Br)c4)cc3)c2cc1OC (stereo not shown) [Example 117, 1-(3-Bromophenyl)ethyl N-{4-[(6,7-dimethoxy-4-quinolyl)oxy]phenyl}carbamate] | – | 759 | 26 | – |
| COc1cc2nccc(Oc3ccc(NC(=O)OC(C)c4cccc(N(C)C)c4)c(C)c3C)c2cc1OC (stereo not shown) [Example 200, 1-[3-(Dimethylamino)phenyl]ethyl N-{4-[(6,7-dimethoxy-4-quinolyl)oxy]-2,3-dimethylphenyl}-carbamate] | – | 329 | 31 | – |
| COc1cc2nccc(Oc3cc(C)c(NC(=O)OCc4ccccc4Cl)cc3C)c2cc1OC [Example 241, 2-Chlorobenzyl N-{4-[(6,7-dimethoxy-4-quinolyl)oxy]-2,5-dimethylphenyl}carbamate] | – | 232 | 12 | – |
| COc1cc2nccc(Oc3ccc(NC(=O)OC(C)c4ccccc4Cl)c(C)c3C)c2cc1OC (stereo not shown) [Example 14, 1-(2-Chlorophenyl)ethyl N-{4-[(6,7-dimethoxy-4-quinolyl)oxy]-2,3-dimethylphenyl}carbamate] | – | 209 | 12 | – |
| COc1cc2nccc(Oc3ccc(NC(=O)Sc4ccc(Cl)cc4C)c(C)c3C)c2cc1OC [Example 177, 4-Chloro-2-methylphenyl{4-[(6,7-dimethoxy-4-quinolyl)oxy]-2,3-dimethylanilino}methanethioate] | – | < 30 | 19 | – |
| COc1cc2nccc(Oc3ccc(NC(=O)OCc4ccccc4C)c(C)c3C)c2cc1OC [Example 232, 2-Methylbenzyl N-{4-[(6,7-dimethoxy-4-quinolyl)oxy]-2,3-dimethylphenyl}carbamate] | – | 42 | 11 | – |
| COc1cc2nccc(Oc3cc(C)c(NC(=O)OC(C)c4cccc(C(F)(F)F)c4)cc3C)c2cc1OC (stereo not shown) [Example 89, 1-[3-(Trifluoromethyl)phenyl]ethyl N-{4-[(6,7-dimethoxy-4-quinolyl)oxy]-2,5-dimethylphenyl}carbamate] | – | – | 14 | inhibition at 1 µM ([1]; figure in parentheses in −( )): 35% |
| COc1cc2ncnc(Oc3ccc(NC(=O)OCc4ccccc4Cl)c(Cl)c3)c2cc1OC [Example 318, 2-Chlorobenzyl N-{2-chloro-4-[(6,7-dimethoxy-4-quinazolinyl)oxy]phenyl}carbamate] | – | 418 | 10 | – |
| COc1cc2nccc(Oc3ccc(NC(=O)OCCCSc4ccc(Cl)cc4C)c(C)c3C)c2cc1OC [Example 78, 3-[(4-Chloro-2-methylphenyl)sulfanyl]propyl N-{4-[(6,7-dimethoxy-4-quinolyl)oxy]-2,3-dimethylphenyl}carbamate] | – | 129 | 16 | – |
| CCCOC(=O)Nc1ccc(Oc2ncnc3cc(OC)c(OC)cc23)cc1 [Example 314, Propyl N-{4-[(6,7-dimethoxy-4-quinazolinyl)oxy]phenyl}carbamate] | – | 32 | 44 | – |
| COc1cc2ncnc(Oc3ccc(NC(=O)OCCCOc4ccccc4Cl)c(C)c3C)c2cc1OC [Example 211, 3-(2-Chlorophenoxy)propyl N-{4-[(6,7-dimethoxy-4-quinazolinyl)oxy]-2,3-dimethylphenyl}-carbamate] | – | 43 | 17 | – |
| COc1cc2nccc(Oc3ccc(NC(=O)OCCCCCCN(C)C)cc3)c2cc1OC [Example 309, 6-(Dimethylamino)hexyl N-{4-[(6,7-dimethoxy-4-quinolyl)oxy]phenyl}carbamate] | – | 285 | 10 | – |
